{"source": "patent US11767310B2", "about": "“Nicotinamide RIPK1 inhibitors” (AbbVie Inc., priority 2021, dated 2023)", "assay_in_all_cases": "Kinase binding screen", "details_in_all_cases": "read-out: Percent Control at 100 nM Compound Concentration", "key": {"[1]": {"target": "ABL1(F317L)-nonphosphorylated (Homo sapiens (Human), UniProt P00519, F317L)"}, "ARK5": {"target": "ARK5 (Homo sapiens (Human), UniProt O60285)"}, "AXL": {"target": "AXL (Homo sapiens (Human), UniProt P30530)", "sequence (P30530 26-894)": "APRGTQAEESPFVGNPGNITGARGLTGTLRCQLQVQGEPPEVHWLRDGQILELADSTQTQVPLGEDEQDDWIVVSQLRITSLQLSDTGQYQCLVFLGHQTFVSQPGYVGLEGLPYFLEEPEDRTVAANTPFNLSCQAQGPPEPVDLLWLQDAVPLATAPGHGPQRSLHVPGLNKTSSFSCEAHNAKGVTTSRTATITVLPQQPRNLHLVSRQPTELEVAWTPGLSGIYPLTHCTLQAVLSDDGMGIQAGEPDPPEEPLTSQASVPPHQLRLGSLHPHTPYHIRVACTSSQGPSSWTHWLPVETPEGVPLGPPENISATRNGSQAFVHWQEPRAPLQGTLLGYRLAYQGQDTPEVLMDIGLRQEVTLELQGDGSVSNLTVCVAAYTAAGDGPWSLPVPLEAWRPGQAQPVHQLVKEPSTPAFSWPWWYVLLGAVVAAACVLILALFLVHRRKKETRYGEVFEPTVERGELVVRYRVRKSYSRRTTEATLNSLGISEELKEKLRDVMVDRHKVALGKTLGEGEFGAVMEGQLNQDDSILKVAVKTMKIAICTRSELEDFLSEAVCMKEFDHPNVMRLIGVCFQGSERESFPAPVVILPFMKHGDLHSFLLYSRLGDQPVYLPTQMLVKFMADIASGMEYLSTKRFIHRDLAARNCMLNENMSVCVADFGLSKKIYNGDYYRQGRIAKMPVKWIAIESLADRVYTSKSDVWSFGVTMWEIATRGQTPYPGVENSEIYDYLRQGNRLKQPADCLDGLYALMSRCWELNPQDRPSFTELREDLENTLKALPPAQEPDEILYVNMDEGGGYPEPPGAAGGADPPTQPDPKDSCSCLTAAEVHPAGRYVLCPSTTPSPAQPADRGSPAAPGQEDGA"}, "CAMKK1": {"target": "CAMKK1 (Homo sapiens (Human), UniProt Q8N5S9)", "sequence (Q8N5S9 whole entry)": "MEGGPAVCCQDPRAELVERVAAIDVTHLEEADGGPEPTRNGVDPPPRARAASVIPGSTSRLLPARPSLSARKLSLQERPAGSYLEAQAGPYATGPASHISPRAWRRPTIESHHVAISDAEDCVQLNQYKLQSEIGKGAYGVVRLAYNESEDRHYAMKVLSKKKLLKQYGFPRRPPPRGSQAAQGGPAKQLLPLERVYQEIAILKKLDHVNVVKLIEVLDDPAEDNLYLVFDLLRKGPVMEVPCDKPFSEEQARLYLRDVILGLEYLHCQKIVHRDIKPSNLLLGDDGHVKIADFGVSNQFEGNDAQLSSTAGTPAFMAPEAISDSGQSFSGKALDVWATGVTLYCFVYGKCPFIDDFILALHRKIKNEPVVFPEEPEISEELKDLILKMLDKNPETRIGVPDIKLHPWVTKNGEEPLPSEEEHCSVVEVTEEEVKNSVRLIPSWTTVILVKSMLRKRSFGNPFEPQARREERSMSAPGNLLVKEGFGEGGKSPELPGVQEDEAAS"}, "CDK9": {"target": "CDK9 (Homo sapiens (Human), UniProt P50750)"}, "CLK1": {"target": "CLK1 (Homo sapiens (Human), UniProt P49759)"}, "CLK2": {"target": "CLK2 (Homo sapiens (Human), UniProt P49760)"}, "[2]": {"target": "EGFR(L747-S752del, P753S) (Homo sapiens (Human), UniProt P00533, DEL747-752/P753S)"}, "EGFR(L858R,T790M)": {"target": "EGFR(L858R,T790M) (Homo sapiens (Human), UniProt P00533, L858R/T790M)"}, "EPHA2": {"target": "EPHA2 (Homo sapiens (Human), UniProt P29317)", "sequence (P29317 24-976)": "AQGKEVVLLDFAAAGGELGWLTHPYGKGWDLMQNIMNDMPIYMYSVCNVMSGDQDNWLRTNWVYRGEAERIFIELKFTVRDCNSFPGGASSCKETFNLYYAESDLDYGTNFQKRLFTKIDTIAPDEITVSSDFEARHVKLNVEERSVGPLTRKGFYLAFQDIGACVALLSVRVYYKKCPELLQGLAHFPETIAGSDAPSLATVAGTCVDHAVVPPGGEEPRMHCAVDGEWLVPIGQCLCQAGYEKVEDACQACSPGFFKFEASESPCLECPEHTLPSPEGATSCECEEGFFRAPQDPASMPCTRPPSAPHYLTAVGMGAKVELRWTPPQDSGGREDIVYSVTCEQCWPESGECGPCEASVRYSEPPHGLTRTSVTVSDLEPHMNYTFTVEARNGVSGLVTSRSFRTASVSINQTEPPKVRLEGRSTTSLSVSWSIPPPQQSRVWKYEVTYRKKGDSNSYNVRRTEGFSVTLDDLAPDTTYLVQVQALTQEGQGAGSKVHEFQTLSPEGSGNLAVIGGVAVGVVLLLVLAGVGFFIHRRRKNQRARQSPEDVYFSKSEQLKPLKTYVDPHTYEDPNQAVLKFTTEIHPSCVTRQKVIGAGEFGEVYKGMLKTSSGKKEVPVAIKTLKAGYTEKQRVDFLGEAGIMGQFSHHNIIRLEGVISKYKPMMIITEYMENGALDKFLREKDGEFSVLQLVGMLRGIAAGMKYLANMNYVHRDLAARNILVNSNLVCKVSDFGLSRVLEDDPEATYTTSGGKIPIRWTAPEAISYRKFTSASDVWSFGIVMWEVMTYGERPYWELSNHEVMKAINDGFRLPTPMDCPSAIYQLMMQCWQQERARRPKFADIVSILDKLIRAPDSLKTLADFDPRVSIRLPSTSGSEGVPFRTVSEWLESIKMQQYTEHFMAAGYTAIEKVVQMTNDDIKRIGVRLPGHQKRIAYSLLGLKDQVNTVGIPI"}, "EPHA3": {"target": "EPHA3 (Homo sapiens (Human), UniProt P29320)"}, "GRK4": {"target": "GRK4 (Homo sapiens (Human), UniProt P32298)"}, "HASPIN": {"target": "HASPIN (Homo sapiens (Human), UniProt Q8TF76)", "sequence (Q8TF76 whole entry)": "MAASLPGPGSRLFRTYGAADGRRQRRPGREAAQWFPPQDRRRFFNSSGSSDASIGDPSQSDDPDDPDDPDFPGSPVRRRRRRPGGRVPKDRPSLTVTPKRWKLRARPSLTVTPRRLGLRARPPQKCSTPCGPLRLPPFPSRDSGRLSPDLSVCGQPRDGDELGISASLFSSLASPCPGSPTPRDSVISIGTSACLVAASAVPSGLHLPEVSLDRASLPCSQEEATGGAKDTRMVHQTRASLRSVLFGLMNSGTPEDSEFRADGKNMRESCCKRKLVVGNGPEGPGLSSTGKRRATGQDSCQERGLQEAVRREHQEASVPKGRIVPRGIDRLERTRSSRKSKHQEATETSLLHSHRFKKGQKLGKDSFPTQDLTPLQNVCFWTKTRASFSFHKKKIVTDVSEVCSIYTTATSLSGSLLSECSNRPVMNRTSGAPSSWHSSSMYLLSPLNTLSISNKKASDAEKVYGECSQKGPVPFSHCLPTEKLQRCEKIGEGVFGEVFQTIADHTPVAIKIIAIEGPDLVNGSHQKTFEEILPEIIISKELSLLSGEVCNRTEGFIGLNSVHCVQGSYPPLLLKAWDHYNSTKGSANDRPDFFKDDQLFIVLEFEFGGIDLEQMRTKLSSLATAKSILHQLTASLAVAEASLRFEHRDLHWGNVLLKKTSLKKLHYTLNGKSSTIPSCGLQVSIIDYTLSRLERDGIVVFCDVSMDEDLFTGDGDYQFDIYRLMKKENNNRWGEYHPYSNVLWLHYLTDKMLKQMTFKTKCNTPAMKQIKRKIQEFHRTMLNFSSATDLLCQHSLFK"}, "KIT(V559D,T670I)": {"target": "KIT(V559D,T670I) (Homo sapiens (Human), UniProt P10721, T670I/V559D)"}, "MEK6": {"target": "MEK6 (Homo sapiens (Human), UniProt P52564)", "sequence (P52564 whole entry)": "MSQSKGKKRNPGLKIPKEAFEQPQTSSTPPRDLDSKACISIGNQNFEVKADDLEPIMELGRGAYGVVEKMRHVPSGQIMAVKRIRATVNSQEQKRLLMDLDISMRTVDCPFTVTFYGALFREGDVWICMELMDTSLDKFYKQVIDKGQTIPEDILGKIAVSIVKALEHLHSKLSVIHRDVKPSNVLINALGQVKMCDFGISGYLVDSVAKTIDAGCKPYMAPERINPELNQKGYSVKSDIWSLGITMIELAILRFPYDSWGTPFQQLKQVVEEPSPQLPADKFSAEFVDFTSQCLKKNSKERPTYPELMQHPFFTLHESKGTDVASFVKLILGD"}, "NEK11": {"target": "NEK11 (Homo sapiens (Human), UniProt Q8NG66)"}, "PAK2": {"target": "PAK2 (Homo sapiens (Human), UniProt Q13177)"}, "PIK3CA(C420R)": {"target": "PIK3CA(C420R) (Homo sapiens (Human), UniProt P42336, C420R)"}, "PRKCH": {"target": "PRKCH (Homo sapiens (Human), UniProt P24723)"}, "RIOK1": {"target": "RIOK1 (Homo sapiens (Human), UniProt Q9BRS2)"}, "[3]": {"target": "RSK1(Kin.Dom.2-C-terminal) (Homo sapiens (Human), UniProt Q15418)"}, "SIK2": {"target": "SIK2 (Homo sapiens (Human), UniProt Q9H0K1)"}, "SNRK": {"target": "SNRK (Homo sapiens (Human), UniProt Q9NRH2)"}, "TAOK3": {"target": "TAOK3 (Homo sapiens (Human), UniProt Q9H2K8)"}, "TLK1": {"target": "TLK1 (Homo sapiens (Human), UniProt Q9UKI8)", "sequence (Q9UKI8 whole entry)": "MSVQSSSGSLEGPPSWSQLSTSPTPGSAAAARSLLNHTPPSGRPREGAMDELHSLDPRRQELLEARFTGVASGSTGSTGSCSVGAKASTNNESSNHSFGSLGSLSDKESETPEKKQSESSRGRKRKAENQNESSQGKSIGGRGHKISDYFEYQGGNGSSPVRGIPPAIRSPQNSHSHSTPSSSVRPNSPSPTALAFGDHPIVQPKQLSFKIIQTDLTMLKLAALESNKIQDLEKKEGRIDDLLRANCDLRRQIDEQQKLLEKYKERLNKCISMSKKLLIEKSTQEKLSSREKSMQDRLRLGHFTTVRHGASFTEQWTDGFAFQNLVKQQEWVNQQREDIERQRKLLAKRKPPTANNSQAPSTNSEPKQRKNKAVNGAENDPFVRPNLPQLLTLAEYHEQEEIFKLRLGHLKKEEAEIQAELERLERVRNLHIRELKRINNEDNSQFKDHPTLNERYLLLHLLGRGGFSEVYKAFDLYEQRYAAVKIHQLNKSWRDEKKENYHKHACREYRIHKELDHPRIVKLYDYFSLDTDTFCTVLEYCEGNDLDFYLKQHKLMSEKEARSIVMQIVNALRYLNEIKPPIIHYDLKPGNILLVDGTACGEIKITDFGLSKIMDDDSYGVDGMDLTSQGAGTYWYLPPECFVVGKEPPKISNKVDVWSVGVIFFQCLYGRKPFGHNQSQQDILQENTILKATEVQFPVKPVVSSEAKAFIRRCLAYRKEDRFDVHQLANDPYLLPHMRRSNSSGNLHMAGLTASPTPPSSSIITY"}, "TNK1": {"target": "TNK1 (Homo sapiens (Human), UniProt Q13470)"}, "TRKA": {"target": "TRKA (Homo sapiens (Human), UniProt P04629)", "sequence (P04629 33-796)": "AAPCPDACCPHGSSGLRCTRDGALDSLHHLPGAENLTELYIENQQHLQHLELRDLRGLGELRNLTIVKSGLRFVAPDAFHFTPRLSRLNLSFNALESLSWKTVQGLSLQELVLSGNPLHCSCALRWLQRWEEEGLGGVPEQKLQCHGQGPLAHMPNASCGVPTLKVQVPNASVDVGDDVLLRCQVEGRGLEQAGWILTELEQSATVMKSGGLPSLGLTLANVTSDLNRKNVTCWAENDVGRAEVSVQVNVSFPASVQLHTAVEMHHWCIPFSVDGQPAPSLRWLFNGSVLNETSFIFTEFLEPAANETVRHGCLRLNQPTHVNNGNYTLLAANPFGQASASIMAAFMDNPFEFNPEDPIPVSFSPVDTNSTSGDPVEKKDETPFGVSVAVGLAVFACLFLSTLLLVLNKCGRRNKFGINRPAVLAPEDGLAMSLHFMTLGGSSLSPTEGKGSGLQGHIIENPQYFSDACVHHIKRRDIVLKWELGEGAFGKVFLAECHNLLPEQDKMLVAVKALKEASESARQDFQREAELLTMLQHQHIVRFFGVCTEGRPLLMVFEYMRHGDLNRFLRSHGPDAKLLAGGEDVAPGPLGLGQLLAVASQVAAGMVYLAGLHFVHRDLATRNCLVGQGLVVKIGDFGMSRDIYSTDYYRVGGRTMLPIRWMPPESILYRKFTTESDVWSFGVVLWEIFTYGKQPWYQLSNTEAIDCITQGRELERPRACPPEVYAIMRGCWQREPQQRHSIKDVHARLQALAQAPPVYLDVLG"}, "TTK": {"target": "TTK (Homo sapiens (Human), UniProt P33981)"}}, "note": "Read-outs that look alike come from different tables or passages of the source."}
{"smiles": "CN(C[C@@H](O)Cc1ccccc1)C(=O)c1cncc(C#Cc2cnn(C(F)F)c2)c1", "note": "[Example 2, (S)-5-((1-(difluoromethyl)-1H-pyrazol-4-yl)ethynyl)-N-(2-hydroxy-3-phenylpropyl)-N-methylnicotinamide]", "values": [{"measurement": "remaining activity at 0.1 µM", "setting": "[1]; ABL1(F317L)-nonphosphorylated", "result": 100, "unit": "%"}, {"measurement": "remaining activity at 0.1 µM", "setting": "ARK5; ARK5", "result": 100, "unit": "%"}, {"measurement": "remaining activity at 0.1 µM", "setting": "AXL; AXL", "result": 100, "unit": "%"}, {"measurement": "remaining activity at 0.1 µM", "setting": "CAMKK1; CAMKK1", "result": 100, "unit": "%"}, {"measurement": "remaining activity at 0.1 µM", "setting": "CDK9; CDK9", "result": 100, "unit": "%"}, {"measurement": "remaining activity at 0.1 µM", "setting": "CLK1; CLK1", "result": 100, "unit": "%"}, {"measurement": "remaining activity at 0.1 µM", "setting": "CLK2; CLK2", "result": 95, "unit": "%"}, {"measurement": "remaining activity at 0.1 µM", "setting": "[2]; EGFR(L747-S752del, P753S)", "result": 100, "unit": "%"}, {"measurement": "remaining activity at 0.1 µM", "setting": "EGFR(L858R,T790M); EGFR(L858R,T790M)", "result": 83, "unit": "%"}, {"measurement": "remaining activity at 0.1 µM", "setting": "EPHA2; EPHA2", "result": 100, "unit": "%"}, {"measurement": "remaining activity at 0.1 µM", "setting": "EPHA3; EPHA3", "result": 100, "unit": "%"}, {"measurement": "remaining activity at 0.1 µM", "setting": "GRK4; GRK4", "result": 100, "unit": "%"}, {"measurement": "remaining activity at 0.1 µM", "setting": "HASPIN; HASPIN", "result": 86, "unit": "%"}, {"measurement": "remaining activity at 0.1 µM", "setting": "KIT(V559D,T670I); KIT(V559D,T670I)", "result": 97, "unit": "%"}, {"measurement": "remaining activity at 0.1 µM", "setting": "MEK6; MEK6", "result": 100, "unit": "%"}, {"measurement": "remaining activity at 0.1 µM", "setting": "NEK11; NEK11", "result": 100, "unit": "%"}, {"measurement": "remaining activity at 0.1 µM", "setting": "PAK2; PAK2", "result": 97, "unit": "%"}, {"measurement": "remaining activity at 0.1 µM", "setting": "PIK3CA(C420R); PIK3CA(C420R)", "result": 83, "unit": "%"}, {"measurement": "remaining activity at 0.1 µM", "setting": "PRKCH; PRKCH", "result": 100, "unit": "%"}, {"measurement": "remaining activity at 0.1 µM", "setting": "RIOK1; RIOK1", "result": 100, "unit": "%"}, {"measurement": "remaining activity at 0.1 µM", "setting": "[3]; RSK1(Kin.Dom.2-C-terminal)", "result": 100, "unit": "%"}, {"measurement": "remaining activity at 0.1 µM", "setting": "SIK2; SIK2", "result": 89, "unit": "%"}, {"measurement": "remaining activity at 0.1 µM", "setting": "SNRK; SNRK", "result": 100, "unit": "%"}, {"measurement": "remaining activity at 0.1 µM", "setting": "TAOK3; TAOK3", "result": 92, "unit": "%"}, {"measurement": "remaining activity at 0.1 µM", "setting": "TLK1; TLK1", "result": 100, "unit": "%"}, {"measurement": "remaining activity at 0.1 µM", "setting": "TNK1; TNK1", "result": 100, "unit": "%"}, {"measurement": "remaining activity at 0.1 µM", "setting": "TRKA; TRKA", "result": 100, "unit": "%"}, {"measurement": "remaining activity at 0.1 µM", "setting": "TTK; TTK", "result": 100, "unit": "%"}]}
{"smiles": "CN(C[C@H](Cc1ccccc1)OP(=O)(O)O)C(=O)c1cncc(C#Cc2cnn(C(F)F)c2)c1", "note": "[Example 19, (S)-1-(5-((1-(difluoromethyl)-1H-pyrazol-4-yl)ethynyl)-N-methylnicotinamido)-3-phenylpropan-2-yl dihydrogen phosphate]", "values": [{"measurement": "remaining activity at 0.1 µM", "setting": "[1]", "result": 100, "unit": "%"}, {"measurement": "remaining activity at 0.1 µM", "setting": "ARK5", "result": 100, "unit": "%"}, {"measurement": "remaining activity at 0.1 µM", "setting": "AXL", "result": 96, "unit": "%"}, {"measurement": "remaining activity at 0.1 µM", "setting": "CAMKK1", "result": 100, "unit": "%"}, {"measurement": "remaining activity at 0.1 µM", "setting": "CDK9", "result": 100, "unit": "%"}, {"measurement": "remaining activity at 0.1 µM", "setting": "CLK1", "result": 100, "unit": "%"}, {"measurement": "remaining activity at 0.1 µM", "setting": "CLK2", "result": 100, "unit": "%"}, {"measurement": "remaining activity at 0.1 µM", "setting": "[2]", "result": 97, "unit": "%"}, {"measurement": "remaining activity at 0.1 µM", "setting": "EGFR(L858R,T790M)", "result": 94, "unit": "%"}, {"measurement": "remaining activity at 0.1 µM", "setting": "EPHA2", "result": 100, "unit": "%"}, {"measurement": "remaining activity at 0.1 µM", "setting": "EPHA3", "result": 100, "unit": "%"}, {"measurement": "remaining activity at 0.1 µM", "setting": "GRK4", "result": 100, "unit": "%"}, {"measurement": "remaining activity at 0.1 µM", "setting": "HASPIN", "result": 83, "unit": "%"}, {"measurement": "remaining activity at 0.1 µM", "setting": "KIT(V559D,T670I)", "result": 100, "unit": "%"}, {"measurement": "remaining activity at 0.1 µM", "setting": "MEK6", "result": 96, "unit": "%"}, {"measurement": "remaining activity at 0.1 µM", "setting": "NEK11", "result": 95, "unit": "%"}, {"measurement": "remaining activity at 0.1 µM", "setting": "PAK2", "result": 92, "unit": "%"}, {"measurement": "remaining activity at 0.1 µM", "setting": "PIK3CA(C420R)", "result": 86, "unit": "%"}, {"measurement": "remaining activity at 0.1 µM", "setting": "PRKCH", "result": 91, "unit": "%"}, {"measurement": "remaining activity at 0.1 µM", "setting": "RIOK1", "result": 100, "unit": "%"}, {"measurement": "remaining activity at 0.1 µM", "setting": "[3]", "result": 100, "unit": "%"}, {"measurement": "remaining activity at 0.1 µM", "setting": "SIK2", "result": 96, "unit": "%"}, {"measurement": "remaining activity at 0.1 µM", "setting": "SNRK", "result": 100, "unit": "%"}, {"measurement": "remaining activity at 0.1 µM", "setting": "TAOK3", "result": 85, "unit": "%"}, {"measurement": "remaining activity at 0.1 µM", "setting": "TLK1", "result": 100, "unit": "%"}, {"measurement": "remaining activity at 0.1 µM", "setting": "TNK1", "result": 100, "unit": "%"}, {"measurement": "remaining activity at 0.1 µM", "setting": "TRKA", "result": 81, "unit": "%"}, {"measurement": "remaining activity at 0.1 µM", "setting": "TTK", "result": 82, "unit": "%"}]}
